We go through five molecules from patent US20190127797A1, “BIOMARKERS FOR THE DIAGNOSIS OF INFLAMMATION-RELATED DISEASES” (UNIVERSITE DE BORDEAUX, priority 2016, published 2019).

Assay type in all cases: cell-based, human
One assay relates to NLRC4. Kind of assay: NLRC4 expression by qPCR in primary monocytes. The following applies: 100 μM, 6 hours, GAPDH-standardized, ratio relative to control. As to the method: (§1) FIG. 3. High levels of oxidative stress and increased nucleotide metabolites in IMH individuals can induce cytokine production and expression of inflammasome genes in primary monocytes. Broad-coverage metabolomics profiling was conducted on available serum samples from year 2011 (9 IML and 11 IMH individuals). […] Functional annotation and pathway analysis was conducted using MetPA. A significant enrichment for several metabolic pathways was identified for these metabolites (P<0.05) (a). Conversion of cysteine to cystine; and from arachidonic acid to 8-isoprostane, in the presence of ROS (b). Increased circulating levels of cystine and 8-isoprostane in IMH (b and c) indicate higher levels of oxidative stress (c and d). Adenine, DL-4-hydroxy-3-methoxymandelic acid (vanillylmandelate) (MMA), scyllo-inositol and N4-acetylcytidine (N4A) were selected based on their levels of significance (Q<0.001, see Table 5) and representing different metabolic pathways, to assess their ability to induce IL1FC and expression of NLRC4 in primary monocytes from four healthy donors (shown are the results of one representative experiment). Adenosine was used as a positive control. A significant induction of IL1FC is observed for adenosine and adenine, but not with other compounds (e). The highest dose of each compound (100 μM) was used to determine expression of NLRC4 and NLRP3 by qPCR on the same samples used for cytokine determination (e). […] As previously shown in mice, adenosine treatment up-regulates NLRP3 gene expression (P<0.01) (f). Expression of GAPDH was used to standardize the samples, and the results are expressed as a ratio relative to control. Error bars reflect experimental variability.
(§2) The dysfunction in nucleotide metabolism and in mitochondrial bioenergetics described above may explain the generation of circulating metabolites and chronic oxidative stress, respectively. To study whether the circulating metabolites found in higher levels in the sera from IMH compared to IML subjects up-regulate NLRC4 gene expression and/or cytokine production, four candidate compounds identified from our analysis were selected. They represent distinct metabolic pathways. These included adenine (purine metabolism), DL-4-hydroxy-3-methoxymandelic acid (vanillylmandelate) (phenylalanine and tyrosine metabolism), scyllo-inositol (inositol metabolism) and N4-acetylcytidine (N4A) (pyrimidine metabolism) (Table 5). Adenosine was included as a positive control for IL1FC production. Primary monocytes from four healthy donors were isolated from fresh […] blood and incubated with increasing concentrations of the indicated compounds for 6 hours. […] We also tested whether these stimulations lead to changes in the expression of NLRC4 and NLRP3 (used as a positive control for adenosine stimulation). […] More biochemical studies are necessary to address this.
(§3) Adenosine, adenine, DL-4-hydroxy-3-methoxymandelic acid, scyllo-inositol were all purchased form Sigma (Sigma-Aldrich, St. Louis, Mo.) and N4-acetylcytidine was purchased from Santa Cruz Biotechnology (Dallas, Tex.). Compounds were tested at the indicated concentrations on isolated monocytes from a healthy donor. […] Samples were then transferred to the Human Immune Monitoring Core at Stanford for quantification of cytokines, chemokines and growth factors using the 63-plex Luminex system, as described above. […]
(In qPCR the cycle at which signal appears reflects the starting amount.)

The subject of the next assay is NLRP3. Kind of assay: NLRP3 expression by qPCR in primary monocytes. The following applies: 100 μM, 6 hours, GAPDH-standardized, ratio relative to control. As to the method: as §1, §2, §3
In assay [1] the test system is differentiated THP-1 cells. In words: Cytokine secretion (ELISA) from differentiated THP-1 cells. The following applies: 6 hr; for production of IL-1β / production of IL-18 / production of TNF-α: without ATP pulse. As to the method:
FIG. 4. N4-Acetylcytidine and Adenine induce the NLRC4 inflammasome. (a) Differentiated THP-1 cells were treated with ATP (5 mM, 30 min), or primed with LPS (1 μg/ml, 4 hr) and then pulsed with ATP; or treated with indicated concentrations (mM) of Adenine (Ad) or N4-Acetylcytidine (N4A) alone for 6 hr or (b) in combination, and then pulsed or not with ATP. Secretion of cytokines IL-1β, IL-18 and TNF-α were measured by ELISA from cell culture supernatants. (c) Differentiated THP-1 cells were treated with compounds as indicated (1 mM N4A; 300 μM Ad) for 6 hr or ATP 5 mM 30 min, cells were lysed and cell lysates were then immunoblotted with various antibodies to monitor expression of NLRs, Casp1, and prolL-1β. (d) Differentiated THP-1 cells were treated with compounds as before and cell lysates were submitted to immunoprecipitation with Biotinyl-YVAD-fmk peptide. Complexes were then recovered by using Streptavidin-sepharose beads and immunoblotted with anti-Caspase-1 p10 antibody. (e) Differentiated THP-1 cells were treated with compounds as before in the presence or not of Ac-YVAD-fmk or control DMSO, and IL-1β secretion was measured. (f) Differentiated WT or stable shTHP-1 cell lines were treated with compounds as before (1 mM N4A; 300 μM Ad) and IL-1β secretion was measured. To the right, western-blots showing protein expression of NLRC4 in stable shTHP-1 cell lines. (g) Bone marrow-derived macrophages from WT or KO mice as indicated were isolated and treated with combination of compounds (1 mM N4A; 300 μM Ad), and IL-1β secretion was measured. Data are expressed as concentration of cytokines (pg/ml) (mean±SD; n=3). * P<0.05, ** P<0.01.
In parallel experiments, differentiated THP-1 cells and a human monocytic cell Line were treated to address whether the metabolites N4A and adenine, alone or in combination, could induce inflammasome activation and cytokine secretion in vitro.
Adult male mice (12-18 week old) were divided into two groups: PBS or compound treated-mice (N4-Acetylcytidine+Adenine dissolved in PBS). Compound-treated mice were injected with N4-Acetylcytidine and Adenine (stock solution 20 mM each, 100 ul/25 g body weight, retro-orbital injection, once daily) or PBS. After 3 weeks of treatment, while they continued receiving daily injections of PBS or N4A+Adenine, mice from both groups were administered an infusion of human angiotensin II (AngII, #A9525, Sigma-Aldrich, St. Louis, Mo.) for another 2 weeks. Angll (140 ng/kg per min) was dissolved in 100 ul 20 mM (N4A+Adenine) or in 100 ul PBS and loaded into a small osmotic pump (Durect Corporation, Cupertino, Calif., USA). The osmotic pump was then implanted subcutaneously on the dorsal side around the neck of mice under anesthesia ([…]). Systolic blood pressure was measured every other day in conscious mice using tail-cuff plethysmography (Vistech System BP-2000, Apex, N.C., USA). Experiments with human THP-1 cells and primary blood platelets THP-1 monocytic cell lines were cultured in 6-well plates in RPMI media (supplemented with 10% Fetal Bovine Serum) and differentiated overnight with TPA (10 ng/ml). The day after, adherent cells were washed with fresh media and treated with agonists LPS ([…], 4 hrs) and ATP (5 mM, 30 min) or compounds Adenine/N4-Acetylcytidine at various concentrations.

The subject of another assay is primary neutrophils. Kind of assay: Primary neutrophil activation (RANKL, degranulation, IL-1β secretion). The following applies: 24 hr, various concentrations. As for the experimental part:
(b) Primary neutrophils were isolated from blood of healthy donors and incubated for 24 hr with various concentrations of adenine or N4A alone or in combination, and RANK-L+ cells were determined within the CD66b+ population. (c) Primary neutrophils were treated with N4A (1 mM) and/or adenine (1 mM) and the % of degranulated population was measured for each donor. (d) Primary neutrophils were treated as before with compounds as indicated and IL-1β secretion was measured from cell culture supernatants for each donor. Data are expressed as concentration of cytokines (pg/ml), or as fold increase with respect to non-treated (NT) condition as indicated. * P<0.05, ** P<0.01
In addition, the frequencies of 22 different cell subsets in IMH and IML older adults (N=22) were estimated and in a separate analysis, such frequencies were compared between young and older adults (N=86). For these analyses Cibersort (Newman et al. Robust enumeration of cell subsets from tissue expression profiles. Nature Methods 12, 453-457, 2015) was used, which uses gene expression profiles to characterize cell subset composition in complex tissues, such as whole blood. Significant differences were found in the estimated frequencies of circulating mast cells, as well as in the CD4 T regulatory cell compartment between young and older adults (P<0.01). […]

The test system of the next assay is primary platelets. Kind of assay: Platelet activation, CD61/CD62P membrane expression by flow cytometry. Conditions: platelets of two healthy donors, 6 hrs at 37° C., various concentrations, CD61 and CD62P+. (A flow cytometer gives signals particle by particle.)
In the next assay the test system is primary monocytes. Kind of assay: IL1FC (IL-1α, IL-1β) production in primary monocytes treated with metabolites. Conditions: primary monocytes from four healthy donors, increasing concentrations, 6 hours. As for the experimental part:
as §1
The dysfunction in nucleotide metabolism and in mitochondrial bioenergetics described above may explain the generation of circulating metabolites and chronic oxidative stress, respectively. To study whether the circulating metabolites found in higher levels in the sera from IMH compared to IML subjects up-regulate NLRC4 gene expression and/or cytokine production, four candidate compounds identified from our analysis were selected. They represent distinct metabolic pathways. […]
Adenosine, adenine, DL-4-hydroxy-3-methoxymandelic acid, scyllo-inositol were all purchased form Sigma (Sigma-Aldrich, St. Louis, Mo.) and N4-acetylcytidine was purchased from Santa Cruz Biotechnology (Dallas, Tex.). […] Samples were then transferred to the Human Immune Monitoring Core at Stanford for quantification of cytokines, chemokines and growth factors using the 63-plex Luminex system, as described above. […]

[2] abbreviates: then pulsed with ATP (5 mM, 30 min).

Procedure for primary platelets: Primary platelets were isolated from the blood of two donors and incubated for 6 hr at 37° C. with thrombin, or ADP, or various concentrations of Adenine or N4-Acetylcytidine. Platelet activation was monitored by measuring membrane expression of CD61 and CD62P by flow cytometry. Data are representative of at least three independent experiments with similar results. […] Thus, it was sought to determine whether [MUT] and adenine were able to activate human platelets in vitro. To do so, platelets were isolated from the blood of two healthy donors and incubated for 6 hrs at 37° C. with various concentrations of adenine or [MUT]. Thrombin, and ADP were used as controls and platelet activation was monitored by measuring membrane expression of CD61 and CD62P+ cells by flow cytometry. […] Human primary platelets were prepared from whole blood using a venepuncture in EDTA tube after a 20 min centrifugation at 1000 rpm without acceleration and break. Then the supernatant was harvested and 1 μM PGE1 was added. […] Platelets were then stimulated with thrombin (at 0.5 U/ml), ADP, or with the indicated concentrations of [MUT] or adenine, and activation was monitored by flow cytometry using 25 immunostaining of membrane markers with anti-CD61 (marker of platelet population), and anti-CD62-P (marker of activation involved in aggregation).

Take `COc1cc(C(O)C(=O)O)ccc1O` (racemic) [DL-4-hydroxy-3-methoxymandelic acid]: the “expression of NLRC4” value in the assay on NLRC4 is given as “No effect”. Further, in the assay with NLRP3, the “expression of NLRP3” value is “No effect”.

Consider `CC(=O)Nc1ccn([C@@H]2O[C@H](CO)[C@@H](O)[C@H]2O)c(=O)n1` [N4A, N4-acetylcytidine], for which the “expression of NLRC4” value in the assay with NLRC4 was “induced both NLRP3 and NLRC4”. In addition, in assay [1] (setting [2]), the “secretion of IL-1β” value is on record as “potently induced secretion” and the “secretion of IL-18” value is “potently induced secretion”. Moreover, in assay [1], the “production of IL-1β” value is reported as “neither incubation with adenine nor with N4A alone had an effect”, the “production of IL-18” value is listed as “neither incubation with adenine nor with N4A alone had an effect” and the “production of TNF-α” value was “neither incubation with adenine nor with N4A alone had an effect”. In addition, in the assay with NLRP3, the “expression of NLRP3” value is “induced both NLRP3 and NLRC4”.

Take `Nc1ncnc2[nH]cnc12` [adenine]: in the assay with NLRC4, the “expression of NLRC4” value is recorded as “No effect”. In the assay with primary neutrophils, the “RANKL+ cells within the CD66b population” value was “induced a potent increase”. For the same molecule, the “percentage of activated platelets” value with primary platelets is on record as “robustly induced a dose-dependent increase”. Also, in assay [1], the “production of IL-1β” value is “neither incubation with adenine nor with N4A alone had an effect”, the “production of IL-18” value is listed as “neither incubation with adenine nor with N4A alone had an effect” and the “production of TNF-α” value was “neither incubation with adenine nor with N4A alone had an effect”. For the same molecule, in the assay on primary monocytes, the IL-1α production result is “significant increase” and the IL-1β production entry was “significant increase”. Besides, the “expression of NLRP3” value in the assay on NLRP3 is recorded as “No effect”.

Take `Nc1ncnc2c1ncn2[C@@H]1O[C@H](CO)[C@@H](O)[C@H]1O` [adenosine, reference compound]: the “expression of NLRC4” value with NLRC4 is listed as “no increase in NLRC4 was observed”. Further, in the assay with primary monocytes, the IL-1α production result is on record as “significant increase” and the IL-1β production entry is reported as “significant increase”. Besides, in the assay with NLRP3, the “expression of NLRP3” value is on record as “increased expression of NLRP3”.

Take `O[C@H]1[C@H](O)[C@@H](O)[C@H](O)[C@@H](O)[C@@H]1O` [scyllo-inositol]: the “expression of NLRC4” value in the assay on NLRC4 is “No effect”. Besides, the “expression of NLRP3” value in the assay with NLRP3 is “No effect”.
